Assay results from patent publication US20200308548A1, “Amplifying Beta Cell Differentiation with Small Molecules BET (Bromodomain And Extraterminal Family Of Bromodomain-Containing Proteins) Inhibitors” (Centre National de la Recherche Scientifique (CNRS), priority 2016, published 2020).

Key:
[1] = tested on: mouse embryonic pancreatic buds; experiment: NGN3 immunohistochemistry and count of positive nuclei in cultured mouse pancreatic buds; format: cell-based; conditions: five days culture; 0.5 μM IBET-151 or 0.1 μM (+)-JQ1; vs DMSO
Description: (§1) Mouse pancreatic buds were dissected from E11.5 C57Bl6/J embryos and placed at the air/medium interface on 0.45μm filters in culture dishes containing RPMI medium supplemented with 10% fetal calf serum, 1% penicillin-streptomycin, 1% non-essential amino acids and 10mM HEPES. Pancreatic buds were cultured at 37° C. with 5% CO2.
(§2) IBET-151 was obtained from Sigma-Aldrich and (+)/-JQ1 from Abcam. Stock solutions were prepared in DMSO. Inhibitors or DMSO (0.1% final concentration) were added to the culture medium which was changed daily.
Pancreatic buds were fixed in 3.7% formaldehyde, pre-embedded in agarose gel (4% of type VII low gelling temperature agarose (Sigma-Aldrich)) and embedded in paraffin. Sections (4 μm thick) were collected and processed for 3,3' diaminobenzidine immunohistological staining of NGN3, as previously described (Attali et al., 2007).
Photographs representative of a whole pancreas were taken using a transmitted light microscope (Leitz DMRB, Leica) and digitized using a Hammamatsu cooled 3CCCD camera. Total number of NGN3 positive nuclei per rudiment were then manually counted. Values represent the average of three experiments with standard deviation error bars. Statistical analysis was performed using unpaired Student t test.

[2] = tested on: hiPSC-derived pancreatic progenitors; experiment: Viability and cell number by Nucleocounter after BET inhibitor treatment; format: cell-based, human; conditions: three day treatment, all tested concentrations, vs concentration matched DMSO
Description: (§3) Human induced pluripotent stem cells (iPSC) and human embryonic stem cells (ESC) were cultured on standard tissue culture plastic ware coated with hESC-qualified matrigel in mTeSR1™medium. Cells were passaged every three to four days as single cells using TrypLe Select. Rock inhibitor (5 μM) was included at the first day of passaging. Three different iPSC lines derived from a total of two individual donors and one ESC line were applied.
(§4) For differentiation, cells were seeded as single cells in mTeSR1 with 5 μM Rock inhibitor into tissue culture plates (Corning CellBind) at densities ranging between 300-400.000 cells/cm^2. Cells were cultured for 24 h at 37° C., 5% CO2. Following incubation, medium was aspirated and the cells were washed once in PBS before adding the differentiation medium. Differentiation was carried out essentially as described in Rezania et al. (Rezania et al., 2014b). The differentiation protocol is outlined in FIG. 2A. […]
Viability of the cells and total number of cells was analyzed using a Nucleocounter NC3000 Cell analyzer (Chemometec).

[3] = tested on: genetically modified hESC line that express GFP under the control of the Neurogenin 3 promoter; experiment: GFP reporter under Neurogenin 3 promoter in differentiated hESC line; format: cell-based, human; conditions: three days; 400 nM (+)-JQ1 or 2000 nM IBET-151; vs DMSO
Description: as §3, §4
(§5) Differentiation efficiency was analyzed by flow cytometry essentially as described in van de Bunt et al., 2016. […] Unconjugated antibodies were detected with fluorophore conjugated secondary antibodies.

[4] = tested on: hiPSC-derived endocrine progenitor cells; experiment: Neurogenin 3 protein by immunofluorescence microscopy; format: cell-based, human; conditions: three days; 500 nM (+)-JQ1 or 2000 nM IBET-151; vs DMSO
Description: as §3, §4

[5] = tested on: hiPSC-derived endocrine progenitor cells; experiment: Percentage of Neurogenin 3 protein expressing cells by flow cytometry; format: cell-based, human; conditions: three days; 400 nM (+)-JQ1 or 2000 nM IBET-151; three biological experiments
Description: as §3, §4, §5

[6] = tested on: hiPSC-derived pancreatic progenitors; experiment: Neurogenin 3 mRNA by qPCR in hiPSC-derived pancreatic progenitors differentiated towards endocrine lineage; format: cell-based, human; conditions: three days, six different concentrations
Description: as §3
For differentiation, cells were seeded as single cells in mTeSR1 with 5 μM Rock inhibitor into tissue culture plates (Corning CellBind) at densities ranging between 300-400.000 cells/cm^2. Cells were cultured for 24 h at 37° C., 5% CO2. Following incubation, medium was aspirated and the cells were washed once in PBS before adding the differentiation medium. […]
RNA was isolated from cells using NucleoSpin RNA/protein isolation kit (Macherey-Nagel). RNA was quantified using a nanodrop and […] RNA pr. sample was converted to cDNA using iScript reverse transcription kit (Bio-Rad). Gene expression was evaluated using Tagman gene expression assay for Neurogenin 3(Hs01875204, Applied Biosystems).
Neurogenin 3 transcripts were normalized to the average expression of two housekeeping genes (ACTB, Hs01060665_g1 and HPRT1, Hs99999909_m1, both from Applied Biosystems). Relative expression was calculated using the ΔΔCt method (FIGS. 2B and 2C).

[7] = tested on: mouse embryonic pancreatic buds; experiment: RT-qPCR of Ngn3, Ins1, Ins2 and MafA in cultured mouse pancreatic buds; format: cell-based; conditions: for Ngn3 relative mRNA levels: 0.5 μM IBET-151 or 0.1 μM (+)-JQ1, vs DMSO
Description: as §1, §2
Total RNA from three or more pancreatic buds was extracted using Qiagen RNA extraction microkit and 250ng were reverse transcribed using maxima first strand cDNA synthesis kit from Thermo Fisher. Real-time PCR analysis of Ngn3, MafA and Cyclophylin A were performed in 1× Sybr Green Powermix in QuantStudio 3 Applied Biosystem system. Real-time PCR analysis of Ins1 and Ins2 were performed in 1× TaqMan Gene Expression Mastermix in a QuantStudio 3 Applied Biosystem system. Relative expression of Ngn3, MafA and Cyclophylin A were calculated using the comparative method of relative quantification (2^−ΔΔCT) normalized to cyclophilin A expression. Values represent the average of three experiments with standard deviation error bars. Statistical analysis was performed using unpaired Student t test.

[8] = 5 days with inhibitor (0.5 μM IBET-151 or 0.1 μM (+)-JQ1), then 9 additional days without inhibitor

COc1cc2c(cc1-c1c(C)noc1C)ncc1[nH]c(=O)n([C@H](C)c3ccccn3)c12 [IBET-151]
number of NGN3 positive nuclei [1]: increased
cell number compared to controls [2]: No obvious difference
viability compared to controls [2]: No obvious difference
cells expressing GFP compared to the control [3]: more cells expressing GFP
number of cells positive for Neurogenin 3 protein [4]: clear increase
staining intensity of Neurogenin 3 in individual cells [4]: stronger
number of cells expressing Neurogenin 3 protein relative to control treated cells [5]: approximately 1.6 fold
Neurogenin 3 mRNA expression [6]: dose-dependent increase
concentration at which maximum Neurogenin 3 mRNA expression is achieved [6]: 2000 nM
Ins1 expression increase [7, 8]: 3 fold
Ins2 expression increase [7, 8]: 3 fold
MafA expression increase [7, 8]: 10 folds
Ngn3 relative mRNA levels ([7]; after 3 days of treatment): strongly increased
Ngn3 relative mRNA levels ([7]; after 7 days): remain increased
